Results reported in patent US20230312576A1, “4-(7H-PYRROLO[2,3-D]PYRIMIDIN-4-YL)-3,6-DIHYDROPYRIDINE-1-(2H)-CARBOXAMIDE DERIVATIVES AS LIMK AND/OR ROCK KINASES INHIBITORS FOR USE IN THE TREATMENT OF CANCER” (CENTRE NATIONAL DE LA RECHERCHE SCIENTIFIQUE, priority 2020, published 2023).
Like-named read-outs stand apart in the source and are kept apart here.

Key:
[1] = target: LIMK1 (Homo sapiens (Human), UniProt P53667); experiment: Lanthascreen Eu binding assay (TR-FRET), inhibition of LIMK1
[2] = target: LIMK2 (Homo sapiens (Human), UniProt P53671); experiment: Lanthascreen Eu binding assay (TR-FRET), inhibition of LIMK2
[3] = target: ROCK1 (Homo sapiens (Human), UniProt Q13464); experiment: Z'Lyte assay, ROCK1 inhibition at a single concentration; format: biochemical
[4] = target: ROCK2 (Homo sapiens (Human), UniProt O75116); experiment: Z'Lyte assay, ROCK2 inhibition at a single concentration; format: biochemical
[5] = read-out: % inhibition (ROCK1) 1 uM
[6] = read-out: % inhibition (ROCK2) 1 uM
[7] = read-out: % inhibition (ROCK1) 1 uM, 1 uM
[8] = read-out: % inhibition (ROCK2) 1 uM, 1 uM

ROCK1, sequence (Q13464 whole entry): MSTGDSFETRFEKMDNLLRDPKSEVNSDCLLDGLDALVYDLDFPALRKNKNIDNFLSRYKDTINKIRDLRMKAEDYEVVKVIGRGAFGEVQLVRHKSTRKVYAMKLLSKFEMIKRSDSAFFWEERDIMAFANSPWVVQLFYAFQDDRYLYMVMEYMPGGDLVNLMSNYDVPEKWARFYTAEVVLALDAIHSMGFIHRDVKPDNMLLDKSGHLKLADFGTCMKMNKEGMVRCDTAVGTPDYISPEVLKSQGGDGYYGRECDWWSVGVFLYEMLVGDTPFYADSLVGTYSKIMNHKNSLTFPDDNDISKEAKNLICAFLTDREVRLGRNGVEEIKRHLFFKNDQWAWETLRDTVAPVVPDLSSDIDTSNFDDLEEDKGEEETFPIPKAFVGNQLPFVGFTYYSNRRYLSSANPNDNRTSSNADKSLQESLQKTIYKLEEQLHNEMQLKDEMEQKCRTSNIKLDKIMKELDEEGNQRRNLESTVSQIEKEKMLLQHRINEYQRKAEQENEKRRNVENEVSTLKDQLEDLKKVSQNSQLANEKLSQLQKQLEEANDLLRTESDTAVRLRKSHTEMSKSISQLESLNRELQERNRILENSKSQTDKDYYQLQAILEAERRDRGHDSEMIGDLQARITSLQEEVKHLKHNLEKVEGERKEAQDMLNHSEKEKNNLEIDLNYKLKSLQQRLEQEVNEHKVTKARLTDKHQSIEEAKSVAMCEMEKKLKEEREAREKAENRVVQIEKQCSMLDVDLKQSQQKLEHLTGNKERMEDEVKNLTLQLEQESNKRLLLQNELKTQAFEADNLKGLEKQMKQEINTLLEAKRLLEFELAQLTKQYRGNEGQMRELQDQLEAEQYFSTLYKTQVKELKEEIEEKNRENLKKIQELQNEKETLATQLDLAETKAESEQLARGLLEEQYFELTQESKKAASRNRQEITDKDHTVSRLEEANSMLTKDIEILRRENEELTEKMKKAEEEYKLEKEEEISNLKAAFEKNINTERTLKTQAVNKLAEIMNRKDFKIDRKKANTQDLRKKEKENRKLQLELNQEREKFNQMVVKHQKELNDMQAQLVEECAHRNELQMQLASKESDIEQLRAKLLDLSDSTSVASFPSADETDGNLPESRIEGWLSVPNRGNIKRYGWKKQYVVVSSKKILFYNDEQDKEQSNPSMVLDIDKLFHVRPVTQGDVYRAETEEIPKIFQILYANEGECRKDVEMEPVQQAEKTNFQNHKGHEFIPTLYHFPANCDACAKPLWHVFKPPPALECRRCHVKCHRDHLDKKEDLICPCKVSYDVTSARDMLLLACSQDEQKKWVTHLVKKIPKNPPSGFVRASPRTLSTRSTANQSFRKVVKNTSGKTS
LIMK2, sequence (P53671 whole entry): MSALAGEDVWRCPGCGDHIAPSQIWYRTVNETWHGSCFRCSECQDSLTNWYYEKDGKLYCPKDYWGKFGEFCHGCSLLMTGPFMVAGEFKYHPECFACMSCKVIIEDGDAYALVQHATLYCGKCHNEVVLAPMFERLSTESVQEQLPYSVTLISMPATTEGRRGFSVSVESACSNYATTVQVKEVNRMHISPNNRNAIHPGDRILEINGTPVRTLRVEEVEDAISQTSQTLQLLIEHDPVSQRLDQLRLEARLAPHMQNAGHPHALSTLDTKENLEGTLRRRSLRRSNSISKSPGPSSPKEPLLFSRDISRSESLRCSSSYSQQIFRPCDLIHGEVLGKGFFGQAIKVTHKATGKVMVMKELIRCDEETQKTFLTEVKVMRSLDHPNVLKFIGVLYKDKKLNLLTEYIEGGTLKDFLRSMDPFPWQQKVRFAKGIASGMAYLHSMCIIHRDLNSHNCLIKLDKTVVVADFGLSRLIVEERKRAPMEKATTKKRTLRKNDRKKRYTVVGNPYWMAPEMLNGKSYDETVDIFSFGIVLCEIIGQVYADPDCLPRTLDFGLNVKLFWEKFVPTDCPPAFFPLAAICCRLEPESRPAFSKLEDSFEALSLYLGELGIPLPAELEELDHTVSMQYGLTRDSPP
LIMK1, sequence (P53667 whole entry): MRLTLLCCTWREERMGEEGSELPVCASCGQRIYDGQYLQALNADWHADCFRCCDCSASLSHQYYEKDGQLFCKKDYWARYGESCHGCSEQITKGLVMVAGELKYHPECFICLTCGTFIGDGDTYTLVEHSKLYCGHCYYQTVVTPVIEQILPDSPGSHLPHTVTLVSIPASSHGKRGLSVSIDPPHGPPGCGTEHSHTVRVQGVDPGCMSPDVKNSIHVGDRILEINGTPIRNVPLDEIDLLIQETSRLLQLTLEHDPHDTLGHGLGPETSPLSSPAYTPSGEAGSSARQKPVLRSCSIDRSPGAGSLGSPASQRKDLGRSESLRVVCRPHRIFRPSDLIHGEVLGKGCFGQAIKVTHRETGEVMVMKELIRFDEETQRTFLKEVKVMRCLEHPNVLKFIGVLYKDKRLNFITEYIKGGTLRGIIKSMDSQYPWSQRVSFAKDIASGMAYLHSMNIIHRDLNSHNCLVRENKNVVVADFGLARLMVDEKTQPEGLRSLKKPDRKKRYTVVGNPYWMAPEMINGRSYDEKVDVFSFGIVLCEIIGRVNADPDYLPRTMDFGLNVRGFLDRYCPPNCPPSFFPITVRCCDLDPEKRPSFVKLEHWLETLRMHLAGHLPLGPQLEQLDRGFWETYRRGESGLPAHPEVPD
ROCK2, sequence (O75116 whole entry): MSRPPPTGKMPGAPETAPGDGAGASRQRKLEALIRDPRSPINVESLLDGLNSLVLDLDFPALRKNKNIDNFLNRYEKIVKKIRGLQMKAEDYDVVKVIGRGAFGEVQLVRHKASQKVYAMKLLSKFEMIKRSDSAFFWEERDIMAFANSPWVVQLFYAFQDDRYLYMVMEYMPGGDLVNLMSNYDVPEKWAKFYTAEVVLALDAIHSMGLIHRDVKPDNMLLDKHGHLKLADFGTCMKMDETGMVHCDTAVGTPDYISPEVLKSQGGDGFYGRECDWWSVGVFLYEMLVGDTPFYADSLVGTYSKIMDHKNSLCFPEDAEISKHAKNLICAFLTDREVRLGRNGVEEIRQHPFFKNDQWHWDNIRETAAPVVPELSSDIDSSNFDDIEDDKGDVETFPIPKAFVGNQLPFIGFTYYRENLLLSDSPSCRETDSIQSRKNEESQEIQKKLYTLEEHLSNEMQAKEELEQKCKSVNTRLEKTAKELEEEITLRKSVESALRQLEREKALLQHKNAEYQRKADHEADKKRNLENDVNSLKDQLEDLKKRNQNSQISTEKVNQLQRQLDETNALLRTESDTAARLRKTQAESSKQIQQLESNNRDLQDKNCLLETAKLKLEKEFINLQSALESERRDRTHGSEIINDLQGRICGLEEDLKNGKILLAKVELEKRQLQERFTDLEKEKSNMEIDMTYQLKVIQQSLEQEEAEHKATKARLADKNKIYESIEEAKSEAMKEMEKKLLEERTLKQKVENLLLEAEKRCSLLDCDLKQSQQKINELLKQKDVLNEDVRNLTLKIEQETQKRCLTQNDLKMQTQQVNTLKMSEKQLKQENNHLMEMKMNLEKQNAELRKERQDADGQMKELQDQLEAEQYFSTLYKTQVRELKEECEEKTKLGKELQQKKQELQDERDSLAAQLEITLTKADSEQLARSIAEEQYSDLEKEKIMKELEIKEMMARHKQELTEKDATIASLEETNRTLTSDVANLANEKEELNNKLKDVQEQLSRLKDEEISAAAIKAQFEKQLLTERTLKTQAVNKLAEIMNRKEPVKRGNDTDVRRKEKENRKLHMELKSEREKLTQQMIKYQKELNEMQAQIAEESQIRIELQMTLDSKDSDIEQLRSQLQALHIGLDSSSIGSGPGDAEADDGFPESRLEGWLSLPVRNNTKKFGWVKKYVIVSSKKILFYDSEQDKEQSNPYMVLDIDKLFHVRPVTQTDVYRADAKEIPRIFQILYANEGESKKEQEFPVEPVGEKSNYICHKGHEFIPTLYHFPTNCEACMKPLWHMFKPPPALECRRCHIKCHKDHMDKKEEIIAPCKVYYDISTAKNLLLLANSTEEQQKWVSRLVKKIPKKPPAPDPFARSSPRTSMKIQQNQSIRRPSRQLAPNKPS

Row | SMILES | Ki ([1]; Lanthascreen Eu binding assay) [nM] | Ki ([2]; Lanthascreen Eu binding assay) [nM] | inhibition at 1 µM [3, 5] [%] | inhibition at 1 µM [4, 6] [%] | inhibition at 1 µM [3, 7] [%] | inhibition at 1 µM [4, 8] [%] | further results
1 | Cc1c[nH]c2ncnc(C3=CCN(C(=O)NC4CCCc5ccccc54)CC3)c12 (racemic) [Compound 34-rac, 4-(5-methyl-7H-pyrrolo[2,3-d]pyrimidin-4-yl)-N-tetralin-1-yl-3,6-dihydro-2H-pyridine-1-carboxamide] | 610 | 742 | 79 | 52 | – | – | –
2 | Cc1c[nH]c2ncnc(C3=CCN(C(=O)Nc4ccc(Cl)c(C(F)(F)F)c4)CC3)c12 [Compound 12, N-(4-Chloro-3-(trifluoromethyl)phenyl)-4-(5-methyl-7H-pyrrolo[2,3-d]pyrimidin-4-yl)-3,6-dihydropyridine-1(2H)-carboxamide] | – | – | – | – | 79 | 69 | –
3 | Cc1c[nH]c2ncnc(C3=CCN(C(=O)Nc4ccc5c(c4)OCO5)CC3)c12 [Compound 14, N-(Benzo[d][1,3]dioxol-5-yl)-4-(5-methyl-7H-pyrrolo[2,3-d]pyrimidin-4-yl)-3,6-dihydropyridine-1(2H)-carboxamide] | – | – | 79 | 59 | – | – | –
4 | Cc1c[nH]c2ncnc(C3=CCN(C(=O)Nc4ccc(Oc5ccccc5)cc4)CC3)c12 [Compound 16, 4-(5-Methyl-7H-pyrrolo[2,3-d]pyrimidin-4-yl)-N-(4-phenoxy-phenyl)-3,6-dihydropyridine-1(2H)-carboxamide] | 80.1 | 341 | – | – | – | – | % inhibition (ROCK1) 1 uM ([3]; 1 uM): 15%; % inhibition (ROCK2) 1 uM ([4]; 1 uM): 14%
5 | CCc1cccc(NC(=O)N2CC=C(c3ncnc4[nH]cc(C)c34)CC2)c1 [Compound 20, N-(3-Ethylphenyl)-4-(5-methyl-7H-pyrrolo[2,3-d]pyrimidin-4-yl)-3,6-dihydropyridine-1(2H)-carboxamide] | 162 | 193 | – | – | 55 | 28 | –
6 | Cc1c[nH]c2ncnc(C3=CCN(C(=O)Nc4cccc(-n5ccnc5)c4)CC3)c12 [Compound 24, N-(3-(1H-Imidazol-1-yl)phenyl)-4-(5-methyl-7H-pyrrolo[2,3-d]pyrimidin-4-yl)-3,6-dihydropyridine-1(2H)-carboxamide] | – | – | 40 | 25 | – | – | –
7 | Cc1c[nH]c2ncnc(C3=CCN(C(=O)Nc4cccc(-n5cncn5)c4)CC3)c12 [Compound 26, N-(3-(1H-1,2,4-Triazol-1-yl)phenyl)-4-(5-methyl-7H-pyrrolo[2,3-d]pyrimidin-4-yl)-3,6-dihydropyridine-1(2H)-carboxamide] | 278 | 90.7 | – | – | 85 | 64 | –
8 | Cc1c[nH]c2ncnc(C3=CCN(C(=O)Nc4ccc(Oc5ccccc5)cc4)CC3)c12 [Compound 28, 4-(5-Methyl-7H-pyrrolo[2,3-d]pyrimidin-4-yl)-N-(4-phenoxy-phenyl)-3,6-dihydropyridine-1(2H)-carboxamide] | 34.5 | 43.6 | – | – | – | – | % inhibition (ROCK1) 1 uM ([3]; 1 uM): 76%; % inhibition (ROCK2) 1 uM ([4]; 1 uM): 35%
9 | Cc1c[nH]c2ncnc(C3=CCN(C(=O)Nc4cccs4)CC3)c12 [Compound 33, 4-(5-methyl-7H-pyrrolo[2,3-d]pyrimidin-4-yl)-N-(2-thienyl)-3,6-dihydro-2H-pyridine-1-carboxamide] | 50.1 | 186 | – | – | 96 | 87 | –
10 | Cc1c[nH]c2ncnc(C3=CCN(C(=O)N[C@@H]4CCCc5ccccc54)CC3)c12 [Compound 35-R, 4-(5-methyl-7H-pyrrolo[2,3-d]pyrimidin-4-yl)-N-tetralin-1-yl-3,6-dihydro-2H-pyridine-1-carboxamide] | – | – | 24 | 12 | – | – | Ki [1]: 851 nM; Ki [2]: 2540 nM
11 | CC(=O)NCCCOc1cccc(-c2cccc(NC(=O)N3CC=C(c4ncnc5[nH]cc(C)c45)CC3)c2)c1 [Compound 40, N-(3′-(3-Acetamidopropoxy)-[1,1′-biphenyl]-3-yl)-4-(5-methyl-7H-pyrrolo[2,3-d]pyrimidin-4-yl)-5,6-dihydropyridine-1(2H)-carboxamide] | 10.6 | 13.4 | – | – | 33 | 22 | –
12 | Cc1c[nH]c2ncnc(C3=CCN(C(=O)Nc4cccc(Oc5ccc(N(C)C)cc5)c4)CC3)c12 [Compound 42, N-[3-[4-(Dimethylamino)phenoxy]phenyl]-4-(5-methyl-7H-pyrrolo[2,3-d]pyrimidin-4-yl)-3,6-dihydro-2H-pyridine-1-carboxamide] | 30.7 | 53.3 | – | – | 37 | 31 | –
13 | O=C(NC1CCCCC1)N1CC=C(c2ncnc3[nH]cc(C4CC4)c23)CC1 [Compound 83, N-Cyclohexyl-4-(5-cyclopropyl-7H-pyrrolo[2,3-d]pyrimidin-4-yl)-3,6-dihydropyridine-1(2H)-carboxamide] | 90.9 | – | – | – | 6 | -4 | –
14 | O=C(Nc1ccccc1)N1CC=C(c2ncnc3[nH]c4c(c23)CCCC4)CC1 [Compound 120, N-Phenyl-4-(6,7,8,9-tetrahydro-5H-pyrimido[4,5-b]indol-4-yl)-3,6-dihydropyridine-1(2H)-carboxamide] | 14.9 | 29.6 | 0 | -9 | – | – | –
15 | O=C(Nc1cccc(-c2ccccc2)c1)N1CC=C(c2ncnc3[nH]c4c(c23)CCC4)CC1 [Compound 123, N-([1,1′-Biphenyl]-3-yl)-4-(5,6,7,8-tetrahydrocyclopenta[4,5]pyrrolo[2,3-d]pyrimidin-4-yl)-3,6-dihydropyridine-1(2H)-carboxamide] | 11.5 | 16.2 | 10 | 1 | – | – | –
16 | O=C(Nc1cccc(-c2ccncc2)c1)N1CC=C(c2ncnc3[nH]c4c(c23)CCC4)CC1 [Compound 124, N-(3-(Pyridin-4-yl)phenyl)-4-(5,6,7,8-tetrahydrocyclopenta [4,5]pyrrolo[2,3-d]pyrimidin-4-yl)-3,6-dihydropyridine-1(2H)-carboxamide] | 6.49 | 19.6 | – | – | 7 | 2 | –
17 | O=C(Nc1cccc(Oc2ccccc2)c1)N1CC=C(c2ncnc3[nH]c4c(c23)CCCC4)CC1 [Compound 126, N-(3-Phenoxyphenyl)-4-(6,7,8,9-tetrahydro-5H-pyrimido[4,5-b]indol-4-yl)-3,6-dihydropyridine-1(2H)-carboxamide] | 30.2 | 20.5 | – | – | 7 | -5 | –
18 | COc1cccc(-c2cccc(NC(=O)N3CC=C(c4ncnc5[nH]c6c(c45)CCC6)CC3)c2)c1 [Compound 137, N-[3-(3-Methoxyphenyl)phenyl]-4-(7,9,11-triazatricyclo [6.4.0.02,6]dodeca-1(8),2(6),9,11-tetraen-12-yl)-3,6-dihydropyridine-1(2H)-carboxamide] | 4.97 | 8.59 | – | – | -1 | 4 | –
19 | CN1CCc2[nH]c3ncnc(C4=CCN(C(=O)Nc5cccc(F)c5)CC4)c3c2C1 [Compound 160, N-(3-Fluorophenyl)-4-(6-methyl-6,7,8,9-tetrahydro-5H-pyrido[3′,4′:4,5]pyrrolo[2,3-d]pyrimidin-4-yl)-3,6-dihydropyridine-1(2H)-carboxamide] | 1170 | 2440 | – | – | 1 | -9 | –
20 | CN1CCc2[nH]c3ncnc(C4=CCN(C(=O)Nc5cccc(Cl)c5)CC4)c3c2C1 [Compound 161, N-(3-Chlorophenyl)-4-(6-methyl-6,7,8,9-tetrahydro-5H-pyrido[3′,4′:4,5]pyrrolo[2,3-d]pyrimidin-4-yl)-3,6-dihydropyridine-1(2H)-carboxamide] | 1170 | 2440 | 1 | -9 | – | – | –
21 | CN1CCc2[nH]c3ncnc(C4=CCN(C(=O)Nc5cccc(Br)c5)CC4)c3c2C1 [Compound 162, N-(3-Bromophenyl)-4-(6-methyl-6,7,8,9-tetrahydro-5H-pyrido [3′,4′:4,5]pyrrolo[2,3-d]pyrimidin-4-yl)-3,6-dihydropyridine-1(2H)-carboxamide] | – | – | 4 | -8 | – | – | Ki [1]: 722 nM; Ki [2]: 1030 nM
22 | CC(C)(C)OC(=O)NCCCOc1cccc(-c2cccc(NC(=O)N3CC=C(c4ncnc5[nH]c6c(c45)CCC6)CC3)c2)c1 [Compound 164, tert-butyl (3-((3′-(4-(5,6,7,8-tetrahydrocyclopenta[4,5]pyrrolo[2,3-d]pyrimidin-4-yl)-1,2,3,6-tetrahydropyridine-1-carboxamido)-[1,1′-biphenyl]-3-yl)oxy)propyl)carbamate] | 48.4 | 41.2 | – | – | -2 | 4 | –
23 | CC1=CC(C)=[N+]2C1=Cc1ccc(CCC(=O)NCCCOc3cccc(-c4cccc(NC(=O)N5CC=C(c6ncnc7[nH]cc(C8CC8)c67)CC5)c4)c3)n1[B-]2(F)F [Compound 168, N-(3′-(3-(3-(5,5-Difluoro-7,9-dimethyl-5H-dipyrrolo[1,2-c:2′,1′-f][1,3,2]diazaborinin-3-yl)propanamido)propoxy)-[1,1′-biphenyl]-3-yl)-4-(5-isopropyl-7H-pyrrolo[2,3-d]pyrimidin-4-yl)-3,6-dihydropyridine-1(2H)-carboxamide] | – | – | – | – | – | – | % inhibition (ROCK1) 1 uM [3]: 2%; % inhibition (ROCK2) 1 uM [4]: 20%
24 | CC1=CC(C)=[N+]2C1=Cc1ccc(CCC(=O)NCCCOc3cccc(-c4cccc(NC(=O)N5CC=C(c6ncnc7[nH]cc(C)c67)CC5)c4)c3)n1[B-]2(F)F [Compound 169, N-(3′-(3-(3-(5,5-difluoro-7,9-dimethyl-5H-dipyrrolo[1,2-c:2′,1′-f][1,3,2]diazaborinin-3-yl)propanamido)propoxy)-[1,1′-biphenyl]-3-yl)-4-(5-methyl-7H-pyrrolo [2,3-d]pyrimidin-4-yl)-3,6-dihydropyridine-1(2H)-carboxamide] | – | – | – | – | – | – | % inhibition (ROCK1) 1 uM [3]: 10%
